Reference: ChEMBL document CHEMBL1131036, “Structure-based design, synthesis, and biological evaluation of irreversible human rhinovirus 3C protease inhibitors. 1. Michael acceptor structure-activity studies” (J Med Chem, 1998)
Active and inactive are the calls of the source. The rule behind the calls is not given here.

Assays:
[1] = Half-life in rat plasma; assay type: ADME, organism-based
[2] = test system: HeLa; assay: Formazan production in HRV-14 virus infected cells; assay type: functional, cell-based; details: Homo sapiens
[3] = test system: HeLa; assay: Concentration of compound that increased the percentage of formazan production in HRV-16 virus infected cells to that of untreated control cells; assay type: functional, cell-based; details: Homo sapiens
[4] = test system: HeLa; assay: Concentration of compound that increased the percentage of formazan production in HRV-2 virus infected cells to that of untreated control cells; assay type: functional, cell-based; details: Homo sapiens
[5] = test system: HeLa; assay: Concentration of compound that decreased the percentage of formazan production in treated HRV-14 virus infected cells to that produced in uninfected cells; assay type: functional; details: Homo sapiens
[6] = target: T1, Human rhinovirus A protease (Human rhinovirus sp.) (UniProt Q4U254); assay: Catalytic rate constant (Kobs/[I]) evaluated against human rhinovirus (HRV) serotype 14 3C Protease (3CP); details: Human rhinovirus B (HRV-14)
T1 sequence (whole entry): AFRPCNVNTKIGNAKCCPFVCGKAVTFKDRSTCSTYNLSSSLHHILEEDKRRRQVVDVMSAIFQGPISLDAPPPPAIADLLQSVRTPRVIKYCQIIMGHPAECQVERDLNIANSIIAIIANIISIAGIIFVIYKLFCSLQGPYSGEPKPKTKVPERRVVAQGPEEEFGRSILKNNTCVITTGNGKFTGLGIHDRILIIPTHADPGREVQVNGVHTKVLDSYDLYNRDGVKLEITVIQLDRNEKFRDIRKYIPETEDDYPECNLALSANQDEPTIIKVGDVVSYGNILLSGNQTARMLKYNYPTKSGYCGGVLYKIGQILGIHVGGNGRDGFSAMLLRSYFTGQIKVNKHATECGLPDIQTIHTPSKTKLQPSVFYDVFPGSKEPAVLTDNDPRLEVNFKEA

[7] = test system: Human rhinovirus sp.; assay: Inhibitory activity of compound towards partial or complete loss of 3C protease (HRV-14) activity in presence of 5 mM dithiothreitol (DTT); No inhibition; assay type: functional, organism-based
[8] = test system: Human rhinovirus sp.; assay: Inhibitory activity of compound towards partial or complete loss of 3C protease (HRV-14) activity in presence of 5 mM dithiothreitol (DTT); inhibition observed; assay type: functional, organism-based
[9] = target: T1, Human rhinovirus A protease (Human rhinovirus sp.); assay: Catalytic rate constant (Kobs/[I]) was evaluated against human rhinovirus (HRV) serotype 2 3C Protease (3CP)
[10] = target: T1, Human rhinovirus A protease (Human rhinovirus sp.); assay: Catalytic rate constant (Kobs/[I]) was evaluated against human rhinovirus (HRV) serotype 16 3C Protease (3CP)

| Compound | half-life [1] | EC50 [2] | EC50 [3] | EC50 [4] | CC50 [5] | K obs / 1 [6] | inhibition [7] | inhibition [8] | K obs / 1 [9] | K obs / 1 [10] |
| --- | --- | --- | --- | --- | --- | --- | --- | --- | --- | --- |
| CCOC(=O)/C=C/[C@H](CCC(N)=O)NC(=O)[C@H](Cc1ccccc1)NC(=O)[C@H](CC(C)C)NC(=O)OCc1ccccc1 | 10 min | 0.54 µM | 2.3 µM | 1.6 µM | > 320 µM |  |  |  |  |  |
| CON(C)C(=O)/C=C/[C@H](CCC(N)=O)NC(=O)[C@H](Cc1ccccc1)NC(=O)[C@H](CC(C)C)NC(=O)OCc1ccccc1 | 12 min | 4 µM |  |  | > 100 µM | 5900 M⁻¹ s⁻¹ |  |  |  |  |
| CC(C)C[C@H](NC(=O)OCc1ccccc1)C(=O)N[C@@H](Cc1ccccc1)C(=O)N[C@H](/C=C/C(=O)N1CCc2ccc([N+](=O)[O-])cc21)CCC(N)=O |  | > 320 µM |  |  | > 320 µM | 29000 M⁻¹ s⁻¹ | inactive |  |  |  |
| CC(C)C[C@H](NC(=O)OCc1ccccc1)C(=O)N[C@@H](Cc1ccccc1)C(=O)N[C@H](/C=C/C(=O)N1CCN(C)C1=O)CCC(N)=O |  | 5 µM |  |  | > 320 µM | 312000 M⁻¹ s⁻¹ |  | Yes |  |  |
| CCOC(=O)/C(C)=C/[C@H](CCC(N)=O)NC(=O)[C@H](Cc1ccccc1)NC(=O)[C@H](CC(C)C)NC(=O)OCc1ccccc1 | 20 min | 3 µM |  |  | > 320 µM | 7300 M⁻¹ s⁻¹ |  |  |  |  |
| CC(C)C[C@H](NC(=O)OCc1ccccc1)C(=O)N[C@@H](Cc1ccccc1)C(=O)N[C@H](/C=C/C(=O)OC1CCCCC1)CCC(N)=O | 4 min | 3.6 µM |  |  | > 320 µM | 3700 M⁻¹ s⁻¹ |  |  |  |  |
| CC(=O)N1CC/C(=C\[C@H](CCC(N)=O)NC(=O)[C@H](Cc2ccccc2)NC(=O)[C@H](CC(C)C)NC(=O)OCc2ccccc2)C1=O |  | 0.71 µM |  |  | > 100 µM | 156000 M⁻¹ s⁻¹ |  |  | 13000 M⁻¹ s⁻¹ | 39000 M⁻¹ s⁻¹ |
| CC(C)C[C@H](NC(=O)OCc1ccccc1)C(=O)N[C@@H](Cc1ccccc1)C(=O)N[C@H](/C=C1\CCOC1=O)CCC(N)=O | > 240 min | 5.2 µM |  |  | > 320 µM | 10900 M⁻¹ s⁻¹ |  |  |  |  |
| CC(C)C[C@H](NC(=O)OCc1ccccc1)C(=O)N[C@@H](Cc1ccccc1)C(=O)N[C@H](/C=C/C(=O)N1CCc2cc([N+](=O)[O-])ccc21)CCC(N)=O |  | 17 µM |  |  | > 320 µM | 12000 M⁻¹ s⁻¹ | inactive |  |  |  |
| CC(=O)/C=C/[C@H](CCC(N)=O)NC(=O)[C@H](Cc1ccccc1)NC(=O)[C@H](CC(C)C)NC(=O)OCc1ccccc1 |  | 2 µM |  |  | 60 µM | 54000 M⁻¹ s⁻¹ |  |  | 2700 M⁻¹ s⁻¹ | 8900 M⁻¹ s⁻¹ |
| CC(C)C[C@H](NC(=O)OCc1ccccc1)C(=O)N[C@@H](Cc1ccccc1)C(=O)N[C@H](/C=C/C(=O)N1CCOC1=O)CCC(N)=O |  | 1.6 µM |  |  | > 100 µM | 600000 M⁻¹ s⁻¹ |  | Yes |  |  |
| CC(C)C[C@H](NC(=O)OCc1ccccc1)C(=O)N[C@@H](Cc1ccccc1)C(=O)N[C@H](/C=C/C(=O)N1CCc2ccccc21)CCC(N)=O | > 80 min | 16 µM |  |  | > 320 µM | 6500 M⁻¹ s⁻¹ |  |  |  |  |
| CC(C)C[C@H](NC(=O)OCc1ccccc1)C(=O)N[C@@H](Cc1ccccc1)C(=O)N[C@H](/C=C/C(=O)N1CCCC1=O)CCC(N)=O |  | 0.89 µM |  |  | > 320 µM | 126000 M⁻¹ s⁻¹ |  | Yes |  |  |
| COC(=O)/C=C/[C@H](CCC(N)=O)NC(=O)[C@H](Cc1ccccc1)NC(=O)[C@H](CC(C)C)NC(=O)OCc1ccccc1 |  | 1.3 µM |  |  | > 320 µM | 20000 M⁻¹ s⁻¹ |  |  |  |  |
| CC(C)C[C@H](NC(=O)OCc1ccccc1)C(=O)N[C@@H](Cc1ccccc1)C(=O)N[C@H](/C=C/[N+](=O)[O-])CCC(N)=O |  | > 100 µM |  |  | 100 µM | 500000 M⁻¹ s⁻¹ |  | Yes |  |  |
| CC(C)C[C@H](NC(=O)OCc1ccccc1)C(=O)N[C@@H](Cc1ccccc1)C(=O)N[C@H](/C=C/C(=O)N1CCc2ccc(S(=O)(=O)N(C)C)cc21)CCC(N)=O |  | > 100 µM |  |  |  | 28300 M⁻¹ s⁻¹ | inactive |  |  |  |
| CC(C)C[C@H](NC(=O)OCc1ccccc1)C(=O)N[C@@H](Cc1ccccc1)C(=O)N[C@H](/C=C/C(=O)N1CCC(O)C1)CCC(N)=O (some centres not stated) |  | > 320 µM |  |  | > 320 µM | 1200 M⁻¹ s⁻¹ |  |  |  |  |
| CC(C)C[C@H](NC(=O)OCc1ccccc1)C(=O)N[C@@H](Cc1ccccc1)C(=O)N[C@H](/C=C/C(=O)c1ccco1)CCC(N)=O |  | 2.4 µM |  |  | 19 µM | 460000 M⁻¹ s⁻¹ |  | Yes |  |  |
